In patent publication US20090227619A1, “Harmine derivatives, intermediates used in their preparations, preparation processes and use therefo” (priority 2003, published 2009):
Where two headings read alike, the source gives them in different places.

How the values were obtained:
[1] = tested on: Bel-7402; assay: In vitro cytotoxicity, IC50 by MTT method, Bel-7402; assay type: cell-based
Description: (§1) Culture medium powder RPMI1640 was dissolved in a proper amount of tri-distilled water according to the instruction of the product. […] It was the basic culture solution. The complete culture solution was added with FBS having a final concentration of 10%, 100 U/ml penicillin and 100 µg/ml streptomycin. The solution was fully stirred by a magnetic blender, and the pH of the solution was adjusted to 6.8-7.0. The volume was kept constant. After being filtered and disinfected, the solution was kept into several containers which were sealed and stored at 4° C.
(§2) The cells were placed in a culture dish followed by the addition of complete culture liquid RPMI1640 and then cultured in a incubator comprising 5% CO2 at 37° C. In the exponential growth phase, the cells grew vigorously. If the culture liquid became yellow, the liquid should be replaced instantly.
(§3) The cells, at a concentration of 10^5/ml, were inoculated at a 96-pore culture plate. In each pore, 100 μl cells were inoculated. The cells were placed in a CO2 incubator until the cells were in the logarithmic growth phase. The samples to be tested were added according to the preset concentration gradient. For each gradient, the test was conducted at least three times. An equivalent amount of solvent for dissolving the samples was added in the control group. After 48 h of culture, each pore was added 20 μl MTT (5 mg/ml). The cells were cultured at 37° C. for 4 h. After the supernatant was carefully removed, 100 μl DMSO was added in each pore. The plate was agitated for about 10 minutes such that the precipitates were dissolved. After that, OD value was identified with a Microplate Reader at the wavelength of 490 nm. The survival rate of the cells at various concentrations was calculated according to the following formula:
(§4) Survival rate %=average OD value of the sample group/average OD value of the control group×100%
(§5) Plots of log survival rate of the cells vs. concentration of the medicament were constructed, and the IC50 value of each sample was calculated according to graphing methods.

[2] = tested on: PLA-801; assay: In vitro cytotoxicity, IC50 by MTT method, PLA-801; assay type: cell-based
Description: as §1, §2, §3, §4, §5

[3] = tested on: Lewis lung cancer; details: Lewis lung cancer; for Body weight of the animals, end, First time / Body weight of the animals, end, Second time: ip × 10qd;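 on all read-outs here: mice implanted subcutaneously in the axilla with Lewis lung tumor cells, treated starting the following day, killed roughly three weeks after implantation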
[4] = tested on: HepG2; assay: In vitro cytotoxicity, IC50 by MTT method, HepG2; assay type: cell-based, human
Description: as §1, §2, §3, §4, §5

[5] = tested on: Lovo; assay: In vitro cytotoxicity, IC50 by MTT method, Lovo; assay type: cell-based
Description: as §1, §2, §3, §4, §5

[6] = tested on: NIH3T3; assay: In vitro cytotoxicity, IC50 by MTT method, NIH3T3; assay type: cell-based
Description: as §1, §2, §3, §4, §5

[7] = tested on: S180 sarcoma; details: S180 sarcoma; for Body weight of the animals, beginning, First time / Body weight of the animals, end, First time / Inhibition rate, First time / Weight of the tumor X ± SD, First time / Body weight of the animals, beginning, Second time / Body weight of the animals, end, Second time / Inhibition rate, Second time: ip × 10qd
Description: There was one group of 8 to 10 mice C57BL/6 and Kunming mice for the anti-tumor tests and two groups of mice for negative control.
(3) Sources of tumors: Lewis lung cancer cells and S180 sarcoma in mice, which were sub-cultured and maintained by Pharmacological Center of Shanghai Pharmaceutical Industrial Research Institute.
All samples were weighed and added a small amount of Tween-80 to facilitate dissolution during the experiment, and then 0.5% CMC-Na solution was gradually added to achieve the desired concentration. The volume for experiment was 0.5 ml/20 g mouse.
The medicaments were intraperitoneally administered once a day continuously for 10 days.
For the negative control group, a vehicle of the same volume was intraperitoneally administered once a day continuously for 10 days. For the positive control group, CTX was administered in the dosage of 30 mg/kg once a day continuously for 7 days.
In vivo anti-tumor subcutaneous vaccination in the axilla was employed. Wildly grown tumor source was taken under sterile conditions to form a cell suspension of about 1×10^7 ml by homogenization method. For a corresponding mouse host, the suspension was injected in the axilla in an amount of 0.2 ml/mouse. The next day, the medicaments were administered according to the design of the tests. About three weeks later, all the groups of animals were executed. The tumors were taken from the animals and weighed. The inhibition rate of tumors was calculated according to the following formula:
T: average tumor weight of treated group; C: average tumor weight of negative control group.

[8] = tested on: Hela; assay: In vitro cytotoxicity, IC50 by MTT method, Hela; assay type: cell-based
Description: as §1, §2, §3, §4, §5

[9] = tested on: BGC-823; assay: In vitro cytotoxicity, IC50 by MTT method, BGC-823; assay type: cell-based
Description: as §1, §2, §3, §4, §5

[10] = tested on: Kunming mice;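 further: acute toxicity in Kunming mice grouped by sex, one intraperitoneal dose at five graded levels in Tween-80 plus 0.5% CMC-Na, deaths monitored over two weeks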
Description: Five grades of dosages for each sample according to the results of the preliminary test, each dosage being 0.8 larger than the previous one
During the experiment, each sample was added a small amount of Tween-80 to facilitate dissolution after the sample was weighed, and then 0.5% CMC-Na solution was gradually added to achieve the desired concentration. The experimental volume was 0.5 ml/20 g mouse.
Single injection via intraperitoneal (i.p.) to different groups mice.
Kunming mice were divided into different groups randomly according to their sex. The medicament was intraperitoneally administered to each group of mice according to the dosage setting. After the administration of the medicaments, mice were observed continuously for the first 2 h for any gross behavioral changes and deaths. Dead animals were dissected and examined for any possible organ damage. […] Conditions of animals died within two week were recorded. After two weeks, all survived animals were sacrificed and checked macroscopically for possible damage to the heart, liver, kidneys and so on. Viscera that had substantive pathological changes were pathologically examined.

[11] = Homo sapiens, Bel-7402, BeI7402, MTT, read-out: IC50
[12] = Homo sapiens, HepG2, MTT, read-out: IC50
[13] = Homo sapiens, Lovo, MTT, read-out: IC50
[14] = Mus musculus, NIH3T3, MTT, read-out: IC50
[15] = Homo sapiens, Hela, MTT, read-out: IC50
[16] = Homo sapiens, BGC-823, BGC823, MTT, read-out: IC50

Compound: 2,9-dibenzyl-3-ethoxycarbonyl-β-carbolinium bromate [Compound 86]
- IC50 ([1]; Bel7402 cell strain, read-out: IC50 Bel7402): 50 µM
- IC50 ([2]; PLA-801 cell strain, read-out: IC50 PLA-801): 10 µM
- Body weight of the animals, end, First time ([3]; Dosage 10 (mg/ml)): 24.5 g
- Body weight of the animals, end, Second time ([3]; Dosage 10 (mg/ml)): 25.1 g
- Body weight of the animals, beginning, First time ([3]; Dosage 10, ip × 10qd): 20.2 g
- Inhibition rate, First time ([3]; Dosage 10, ip × 10qd): 34.98%
- Weight of the tumor X ± SD, First time ([3]; Dosage 10, ip × 10qd): 1.58 ± 0.11 g
- Body weight of the animals, beginning, Second time ([3]; Dosage 10, ip × 10qd): 19.1 g
- Inhibition rate, Second time ([3]; Dosage 10, ip × 10qd): 37.20%
- Weight of the tumor X ± SD, Second time ([3]; Dosage 10, ip × 10qd): 1.84 ± 0.17 g
- Body weight of the animals, end, First time ([3]; Dosage 20 (mg/ml)): 25.2 g
- Body weight of the animals, end, Second time ([3]; Dosage 20 (mg/ml)): 23.9 g
- Body weight of the animals, beginning, First time ([3]; Dosage 20, ip × 10qd): 20.0 g
- Inhibition rate, First time ([3]; Dosage 20, ip × 10qd): 41.56%
- Weight of the tumor X ± SD, First time ([3]; Dosage 20, ip × 10qd): 1.42 ± 0.11 g
- Body weight of the animals, beginning, Second time ([3]; Dosage 20, ip × 10qd): 18.7 g
- Inhibition rate, Second time ([3]; Dosage 20, ip × 10qd): 45.05%
- Weight of the tumor X ± SD, Second time ([3]; Dosage 20, ip × 10qd): 1.61 ± 0.17 g
- Inhibition rate (%) Lewis cancer ([3]; comparison table 43, in vivo): 41.56%
- IC50 ([4]; HepG2 cell strain, read-out: IC50 HepG2): 40 µM
- IC50 ([5]; Lovo cell strain, read-out: IC50 Lovo): 20 µM
- IC50 ([6]; NIH3T3 cell strain, read-out: IC50 NIH3T3): 20 µM
- Body weight of the animals, beginning, First time ([7]; Dosage 10 (mg/ml)): 19.3 g
- Body weight of the animals, end, First time ([7]; Dosage 10 (mg/ml)): 24.5 g
- Inhibition rate, First time ([7]; Dosage 10 (mg/ml)): 31.09%
- Weight of the tumor X ± SD, First time ([7]; Dosage 10 (mg/ml)): 1.84 ± 0.16 g
- Body weight of the animals, beginning, Second time ([7]; Dosage 10 (mg/ml)): 18.7 g
- Body weight of the animals, end, Second time ([7]; Dosage 10 (mg/ml)): 24.9 g
- Inhibition rate, Second time ([7]; Dosage 10 (mg/ml)): 28.89%
- Weight of the tumor X ± SD, Second time ([7]; Dosage 10, ip × 10qd): 1.92 ± 0.20 g
- Body weight of the animals, beginning, First time ([7]; Dosage 20 (mg/ml)): 19.0 g
- Body weight of the animals, end, First time ([7]; Dosage 20 (mg/ml)): 23.7 g
- Inhibition rate, First time ([7]; Dosage 20 (mg/ml)): 38.95%
- Weight of the tumor X ± SD, First time ([7]; Dosage 20 (mg/ml)): 1.63 ± 0.26 g
- Body weight of the animals, beginning, Second time ([7]; Dosage 20 (mg/ml)): 18.9 g
- Body weight of the animals, end, Second time ([7]; Dosage 20 (mg/ml)): 24.4 g
- Inhibition rate, Second time ([7]; Dosage 20 (mg/ml)): 41.11%
- Weight of the tumor X ± SD, Second time ([7]; Dosage 20, ip × 10qd): 1.59 ± 0.17 g
- Inhibition rate (%) S180 sarcomata ([7]; comparison table 43, in vivo): 41.11%
- IC50 ([8]; Hela cell strain, read-out: IC50 Hela): 30 µM
- IC50 ([9]; BGC823 cell strain, read-out: IC50 BGC823): 40 µM
- LD50 ([10]; 50% male 50% female mice, single i.p.): 65.7 mg/kg
- LD50 ([10]; mouse, in vivo, ip): 58.2 to 74.1 mg/kg
- LD50 ([10]; summary Table 34, present tests, mice i.p.): 65.7

Compound: CCOC(=O)c1cc2c([nH]c3ccccc32)c(CC)n1 [Compound 12, ethyl 1-ethyl-β-carboline-3-carboxylate]
- IC50 [1, 11]: > 3000 µM
- IC50 ([2]; PLA-801, MTT, read-out: IC50): > 3000 µM
- IC50 [4, 12]: > 3000 µM
- IC50 [5, 13]: 1570 µM
- IC50 [6, 14]: > 3000 µM
- IC50 [8, 15]: > 3000 µM
- IC50 [9, 16]: > 3000 µM
- melting point: 209 to 210 °C

Compound: CCCc1nc(C(=O)OCC)cc2c1[nH]c1ccccc12 [Compound 13, ethyl 1-propyl-β-carboline-3-carboxylate]
- IC50 [1, 11]: > 3000 µM
- IC50 ([2]; PLA-801, MTT, read-out: IC50): 670 µM
- IC50 [4, 12]: 1060 µM
- IC50 [5, 13]: 740 µM
- IC50 [6, 14]: 750 µM
- IC50 [8, 15]: > 3000 µM
- IC50 [9, 16]: > 3000 µM
- melting point: 194 to 195 °C
